Test results reported in patent US12359176B2, “Engineered cells for production of indole-derivatives” (priority 2019, dated 2025).

What was measured:
Assay type in all cases: cell-based
[1] = system: E. coli YhjV knockout (HMP3406_YhjV KO); test: Growth test of yhjV knockout strain in tryptophan; conditions: 1 mM tryptophan, M9 with 0.2% glucose, 30° C., 48 h
Description: This Example describes testing the influence of YhjV on the uptake of amino acids. The growth test was performed using M9 medium supplemented with 0.2% glucose and 1 mM tryptophan, as well as appropriate antibiotics (100 mg/L ampicillin or 50 mg/L kanamycin). The growth curves were monitored with Growth Profiler (Enzyscreen, Heemstede, Netherland) at 30° C. and 250 RPM for 48 h.
We first tested how YhjV transporter affects the growth of E. coli tryptophan. We followed the growth curves of E. coli wild type BW25113 (HMP0_wt), YhjV knockout (HMP3406_YhjV KO) and YhjV overexpression (HMP3405_YhjV O. E., made by transforming pHM635 into HMP0) in M9 medium containing 0.2% glucose supplemented with 1 mM tryptophan.

[2] = system: E. coli; test: Growth of E. coli in the presence of melatonin
Description: FIG. 2. High-concentration of melatonin decreased cell growth of E. coli. Melatonin stock-solution was made by dissolving melatonin into 70% ethanol (ETOH). The growth medium was M9 supplemented with 0.2% glucose and 2 to 7 g/L melatonin. […] The ordinate scale reflects optical density.
(§1) The E. coli Keio strains (single gene deleted strains) were inoculated into 400 μl of M9+0.2% glucose media supplemented with kanamycin (50 μg/ml) in 96 deep well-plate picking the single colonies in LB-agar plates. Then, the plate was incubated at 30° C. with 300 rpm overnight (incubated for 18-24 h). The wild type strain E. coli BW25113 was used as a control. The following day, the saturated pre-cultures were diluted 100 fold into 300 μl of M9+0.2% glucose media (and antibiotics as required) supplemented with 4.4% of ethanol or 4.4% of ethanol and 4.4 g/L of melatonin so that the resulting final concentration would be 4% of ethanol and 4 g/L of melatonin in 96 well MTP plate. In case of the RBS library of yhjV, screening was performed at 5 g/L of melatonin instead of 4 g/L. Then, the culture plates were incubated in Growth Profiler (Enzyscreen, Heemstede, Netherland) at 30° C. and 250 RPM for 48 h with constant monitoring of the growth by taking picture in every 20 minutes interval. Using the GP software (GP960Viewer version 1.0.0.4, Enzyscreen, Heemstede, Netherland), the pictures data was converted into digital OD600 nm values and the growth curves were compared.
In order to elucidate whether melatonin production at high titers is toxic to E. coli, we tested the growth of E. coli strain in the presence of different concentrations of melatonin. Melatonin was externally added into M9 medium supplemented with 0.2% glucose and the growth curves were monitored. […] Compared to the control, the biomass yield decreased ˜30% at 2 g/L melatonin, and further decreased about 30% at 7 g/l melatonin.

[3] = system: E. coli Keio strains (single gene deleted strains); test: Growth Profiler growth test of transporter knockout (Keio) strains in 4 g/L melatonin; conditions: 4% ethanol, M9+0.2% glucose, vs BW25113 control strain
Description: as §1
To identify any melatonin-specific native transporters in E. coli, an E. coli knockout library of 430 strains was screened, testing cell growth in the presence of 4 g/L (or 5 g/L) melatonin using the Growth Profiler. In such a screen, improved growth parameters (especially higher growth rate and/or lower lag time) compared to wild-type strain can be expected in case an importer is knocked-out, whereas decreased growth parameters can be expected in case an exporter is knocked-out (FIG. 3).
The growth curves of the five selected transporter candidate deletion strains (target candidate knocked-out Keio strains) were accessed after running growth profiler experiments as mentioned above.

SMILES | growth of YhjV knockout compared to the wild type [1] | biomass yield decrease compared to the control ([2]; 2 g/L melatonin, M9 medium with 0.2% glucose, control contains 4% ETOH) | further biomass yield decrease ([2]; 7 g/l melatonin, M9 medium with 0.2% glucose, control contains 4% ETOH) | effect on E. coli growth ([2]; high concentrations of melatonin (2 to 7 g/L), M9 with 0.2% glucose) | growth of acrB deletion strain [3] | growth of argO deletion strain [3] | growth of garP deletion strain [3] | growth of lysP deletion strain [3] | growth of yhjV deletion strain [3]
N[C@@H](Cc1c[nH]c2ccccc12)C(=O)O [tryptophan, L-tryptophan] | much lower biomass yield | – | – | – | – | – | – | – | –
COc1ccc2[nH]cc(CCNC(C)=O)c2c1 [melatonin] | – | about 30% | about 30% | inhibited E. coli growth | no growth at all | reduced growth rates | longer lag time and reduced growth rate | reduced growth rates | longer lag time and reduced growth rate
